Measured values: US20110039873A1, “SUBSTITUTED PYRAZOLO[1,5-a] PYRIDINE COMPOUNDS HAVING MULTI-TARGET ACTIVITY” (priority 2009, published 2011)
Like-named read-outs stand apart in the source and are kept apart here.

Experiments:
[1] = target: T1, recombinant full length human JNK3 enzyme (Homo sapiens, UniProt P53779); test: JNK 3 inhibition assay (ATP depletion, luciferase); type: biochemical; conditions: for IC50: 10 uM ATP, ATF2 substrate; for JNK-3 inhibition (in words): see Table 2
T1 construct: recombinant full length human JNK2 or JNK3 enzyme; purchased Upstate; host or cells: Sf21 cells
T1 sequence (P53779 whole entry): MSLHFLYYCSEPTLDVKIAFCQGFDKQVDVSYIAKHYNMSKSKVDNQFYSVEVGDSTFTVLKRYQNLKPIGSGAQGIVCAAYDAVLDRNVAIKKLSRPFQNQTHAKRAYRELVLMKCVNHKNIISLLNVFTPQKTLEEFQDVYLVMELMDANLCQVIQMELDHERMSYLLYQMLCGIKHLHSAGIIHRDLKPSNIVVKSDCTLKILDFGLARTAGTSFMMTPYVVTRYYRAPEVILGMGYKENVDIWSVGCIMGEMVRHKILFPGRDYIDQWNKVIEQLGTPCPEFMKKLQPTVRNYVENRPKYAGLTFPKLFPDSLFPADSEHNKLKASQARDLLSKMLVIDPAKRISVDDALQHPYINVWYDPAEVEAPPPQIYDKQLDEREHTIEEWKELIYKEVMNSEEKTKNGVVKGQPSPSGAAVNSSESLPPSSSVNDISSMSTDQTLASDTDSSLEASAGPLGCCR
Method: In a 96-well plate, recombinant full length human JNK2 or JNK3 enzyme (40 ng) expressed in Sf21 cells (Upstate) was incubated with the substrate ATF2 (3 uM) for 1 hour in the presence of 10 uM ATP. […] The ATP levels were quantified using luciferase with luminescence read on a Victor Light 1420 luminometer. IC50 calculations were plotted using a nonlinear regression curve fit.

[2] = target: T2, recombinant human phosphodiesterase 10A1 enzyme (Homo sapiens, UniProt Q9Y233); test: PDE10 inhibition assay (PDELight); type: biochemical; conditions: for IC50: 1 uM cAMP, read-out: PDE 10 Inhibition (IC50 in μM); for PDE-10 inhibition (in words): Table 2
T2 construct: purchased BPS Biosciences; host or cells: Baculovirus infected Sf9 cells
T2 sequence (Q9Y233 1-779 isoform Q9Y233-1): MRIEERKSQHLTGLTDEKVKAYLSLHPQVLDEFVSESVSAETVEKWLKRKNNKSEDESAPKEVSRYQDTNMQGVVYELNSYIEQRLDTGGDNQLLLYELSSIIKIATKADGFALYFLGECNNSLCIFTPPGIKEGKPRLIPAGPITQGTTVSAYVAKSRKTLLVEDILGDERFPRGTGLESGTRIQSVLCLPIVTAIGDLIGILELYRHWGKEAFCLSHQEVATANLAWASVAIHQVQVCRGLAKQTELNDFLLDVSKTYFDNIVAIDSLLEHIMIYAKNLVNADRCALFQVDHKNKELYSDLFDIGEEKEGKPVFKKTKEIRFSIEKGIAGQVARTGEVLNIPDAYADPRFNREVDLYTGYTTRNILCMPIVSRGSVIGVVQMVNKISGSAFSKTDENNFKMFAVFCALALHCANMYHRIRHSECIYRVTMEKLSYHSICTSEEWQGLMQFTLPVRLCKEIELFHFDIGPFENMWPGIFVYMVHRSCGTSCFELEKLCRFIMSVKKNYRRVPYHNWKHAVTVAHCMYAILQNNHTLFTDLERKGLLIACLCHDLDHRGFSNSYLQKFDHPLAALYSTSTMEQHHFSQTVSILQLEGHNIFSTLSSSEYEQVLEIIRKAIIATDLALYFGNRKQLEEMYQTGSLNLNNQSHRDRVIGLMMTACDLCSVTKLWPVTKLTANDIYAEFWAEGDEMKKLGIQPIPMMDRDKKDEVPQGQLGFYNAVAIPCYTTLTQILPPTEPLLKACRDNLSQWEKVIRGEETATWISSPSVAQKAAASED
Method: In a 96-well plate, recombinant human phosphodiesterase 10A1 enzyme (10 U/well) expressed in Baculovirus infected Sf9 cells (BPS Biosciences) was combined with 1 uM cAMP substrate (Sigma). […] Using a PDELight® kit (Cambrex), the amount of AMP produced in the reaction from the hydrolysis of cAMP was quantified using PDELight AMP Detection Reagent which converts the AMP directly to ATP. The assay uses luciferase, which catalyses the formation of light from the newly formed ATP and luciferin. The luminescence was read on a Victor Light 1420 luminometer. IC50 calculations were plotted using a nonlinear regression curve fit.

[3] = target: T3, catalytic domain of phosphodiesterase 4B enzyme cloned from human brain (Homo sapiens, UniProt Q07343); test: PDE4 inhibition assay (PDELight); type: biochemical; conditions: for IC50: 5 uM cAMP, read-out: PDE 4 Inhibition (IC50 in μM)
T3 construct: the catalytic domain of phosphodiesterase 4B enzyme; purchased Scottish Biomedical
T3 sequence (Q07343 330-659 limits assumed): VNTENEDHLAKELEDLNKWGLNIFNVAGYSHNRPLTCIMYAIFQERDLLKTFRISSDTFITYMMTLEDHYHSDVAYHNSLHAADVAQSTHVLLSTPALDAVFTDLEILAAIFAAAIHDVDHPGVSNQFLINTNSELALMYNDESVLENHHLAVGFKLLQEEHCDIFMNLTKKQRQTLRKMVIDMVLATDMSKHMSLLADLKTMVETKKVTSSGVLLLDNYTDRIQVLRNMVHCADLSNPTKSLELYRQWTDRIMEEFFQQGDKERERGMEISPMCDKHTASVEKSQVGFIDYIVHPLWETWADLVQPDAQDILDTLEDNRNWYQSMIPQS
Method: In a 96-well plate, the catalytic domain of phosphodiesterase 4B enzyme (40 mU/well) cloned from human brain (Scottish Biomedical) was combined with 5 uM cAMP substrate (Sigma). […] Using a PDELight® kit (Cambrex), the amount of AMP produced in the reaction from the hydrolysis of cAMP was quantified using PDELight AMP Detection Reagent which converts the AMP directly to ATP. The assay uses luciferase, which catalyses the formation of light from the newly formed ATP and luciferin. […] IC50 calculations were plotted using a nonlinear regression curve fit.

[4] = tested on: Mouse BV-2 microglial cells; test: BV-2 glial cell assay (TNF-α and MCP-1 by Luminex); type: cell-based; conditions: for EC50: Mus musculus, BV-2, LPS and IFN-γ activated, 20 hours; for inhibiting glial cell activation (TNF-α and/or MCP-1): Table 3
Method: Mouse BV-2 microglial cells were seeded on 96-well plates at a concentration of 3×10^4 cells/well. Cells were activated with 100 ng/mL LPS and IFN-γ (100 ng/mL) in the presence or absence of test compounds (0-30 uM). Following incubation for 20 hours, cells were spun down and supernatant collected. The supernatant was analyzed via Luminex for the presence of TNF-α and MCP-1.

[5] = tested on: phosphorylated c-Jun (serine-73); test: Phosphorylated c-JUN (6-OHDA), SH-SY5Y; type: cell-based; conditions: Homo sapiens, 50 uM 6-hydroxydopamine, 1.5 hours, read-out: p-cJun 6-OHDA SH-SY5Y (EC50 in μM)
Method: Human SH-SY5Y neuroblastoma cells were cultured in 96-well plates with 2.5×10^4 cells/well and incubated for 48 hours. 6-hydroxydopamine was added at a concentration of 50 uM in the presence or absence of test compounds (0-30 uM) and incubated for 1.5 hours. Supernatant was discarded and cells were fixed with 4% paraformaldehyde (100 ul/well) for 20 minutes. FACE cell based ELISA assay (Active Motif) was performed specific for quantifying phosphorlyated c-Jun (serine-73).

[6] = tested on: phosphorylated c-Jun (serine-73); test: Phosphorylated c-JUN (A-beta), SH-SY5Y; type: cell-based; conditions: Homo sapiens, Amyloid Beta peptide 30 uM, 3 hours, read-out: p-cJun Abeta SH-SY5Y (EC50 in μM)
Method: In 96-well plates either human SH-SY5Y neuroblastoma cells at 2.5×10^4 cells/well or E18 rat neuronal cells at 1.5×10^4 cells/well were seeded. […] Supernatant was discarded and cells were fixed with 4% paraformaldehyde (100 ul/well) for 20 minutes. FACE cell based ELISA assay (Active Motif) was performed specific for quantifying phosphorlyated c-Jun (serine-73).

[7] = tested on: rat chronic constriction injury (CCI) model of neuropathic pain; test: Rat chronic constriction injury (CCI) model of neuropathic pain; type: in vivo; conditions: IP, dose not given; 50% paw withdrawal threshold, von Frey
Method: To induce allodynia, male Sprague-Dawley rats underwent chronic constriction injury (CCI) to the sciatic nerve as described by Bennett and Xie, Pain 1988; 33(1):87-107. The plantar surface of the hind paws was stimulated with von Frey filaments (Stoelting) to induce a withdrawal response by blinded personnel. The bending force of fiber required to induce a 50% withdrawal response was calculated following CCI surgery (pre-dosing baseline). N=5-6 allodynic rats received a single IP or oral administration of test compounds or vehicle. Two hours post-dosing, 50% paw withdrawal threshold was determined again by blinded testers using von Frey filaments. The 50% withdrawal threshold prior to CCI surgery, pre-dosing (10 days post-surgery), and 2 hours post-dosing are plotted.
For selected compounds multi-day studies were perfumed with pre-determined schedules for dosing and withdrawal threshold assessments.

[8] = tested on: at least one of JNK 3 or JNK 2 and at least one of PDE 10 or PDE 4; test: Dual inhibition (phosphodiesterase and JNK); type: biochemical, human; conditions: IC50 JNK 3 or JNK 2 less than about 5.00 μM and PDE 10 or PDE 4 less than about 20.0 or 30.0 μM
Method: In a 96-well plate, recombinant full length human JNK2 or JNK3 enzyme (40 ng) expressed in Sf21 cells (Upstate) was incubated with the substrate ATF2 (3 uM) for 1 hour in the presence of 10 uM ATP. The amount of ATP depletion by the JNK enzyme is measured in the presence or absence of test compounds (0-30 uM). The ATP levels were quantified using luciferase with luminescence read on a Victor Light 1420 luminometer. IC50 calculations were plotted using a nonlinear regression curve fit.
In a 96-well plate, the catalytic domain of phosphodiesterase 4B enzyme (40 mU/well) cloned from human brain (Scottish Biomedical) was combined with 5 uM cAMP substrate (Sigma). Test compounds (0-30 uM) or vehicle (0.5% DMSO) were added to the enzyme/substrate and incubated 1 hour. Using a PDELight® kit (Cambrex), the amount of AMP produced in the reaction from the hydrolysis of cAMP was quantified using PDELight AMP Detection Reagent which converts the AMP directly to ATP. The assay uses luciferase, which catalyses the formation of light from the newly formed ATP and luciferin. The luminescence was read on a Victor Light 1420 luminometer. IC50 calculations were plotted using a nonlinear regression curve fit.
In a 96-well plate, recombinant human phosphodiesterase 10A1 enzyme (10 U/well) expressed in Baculovirus infected Sf9 cells (BPS Biosciences) was combined with 1 uM cAMP substrate (Sigma). Test compounds (0-30 uM) or vehicle (0.5% DMSO) were added to the enzyme/substrate and incubated 1 hour. Using a PDELight® kit (Cambrex), the amount of AMP produced in the reaction from the hydrolysis of cAMP was quantified using PDELight AMP Detection Reagent which converts the AMP directly to ATP. The assay uses luciferase, which catalyses the formation of light from the newly formed ATP and luciferin. The luminescence was read on a Victor Light 1420 luminometer. IC50 calculations were plotted using a nonlinear regression curve fit.

[9] = target: T4, recombinant full length human JNK2 enzyme (Homo sapiens, UniProt P45984); test: JNK 2 inhibition assay (ATP depletion, luciferase); type: biochemical
T4 construct: recombinant full length human JNK2 or JNK3 enzyme; purchased Upstate; host or cells: Sf21 cells
T4 sequence (P45984 whole entry): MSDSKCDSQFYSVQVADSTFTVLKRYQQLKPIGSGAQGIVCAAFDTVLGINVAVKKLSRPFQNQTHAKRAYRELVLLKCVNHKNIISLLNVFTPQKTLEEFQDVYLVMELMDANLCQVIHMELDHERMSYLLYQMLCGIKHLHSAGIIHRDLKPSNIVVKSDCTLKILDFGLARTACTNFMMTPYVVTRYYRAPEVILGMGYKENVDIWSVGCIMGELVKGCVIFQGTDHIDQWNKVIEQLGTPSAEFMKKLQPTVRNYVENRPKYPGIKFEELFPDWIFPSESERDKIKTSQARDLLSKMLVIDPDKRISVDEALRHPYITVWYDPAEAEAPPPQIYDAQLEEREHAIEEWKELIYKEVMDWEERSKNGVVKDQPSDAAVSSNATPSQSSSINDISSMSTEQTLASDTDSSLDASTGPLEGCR
Method: In a 96-well plate, recombinant full length human JNK2 or JNK3 enzyme (40 ng) expressed in Sf21 cells (Upstate) was incubated with the substrate ATF2 (3 uM) for 1 hour in the presence of 10 uM ATP. […] IC50 calculations were plotted using a nonlinear regression curve fit.

[10] = Oral pharmacokinetic evaluation; type: in vivo, rat; conditions: Sprague-Dawley rats; for half-life / AUC(0-t) / Cmax: male, rat, plasma; for half-life: Sprague-Dawley, po, 15 mg/kg; for AUC(0-t): read-out: Oral PK AUClast; for Cmax: read-out: Oral PK Cmax
Method: Three male Sprague-Dawley rats were dosed orally via gavage with 15 mg/kg of test compound. Serial blood samples were collected from the jugular vein at 5, 15, and 30 min, 1, 3, and 6 hours post dosing. Samples were processed for plasma via centrifugation and plasma samples were stored frozen prior to analysis via a sensitive and specific HPLC/MS/MS method. PK parameters were calculated using WinNonLin (Pharsight).

[11] = read-out: MCP-1 BV-2 (EC50 in μM)
[12] = read-out: TNF-a BV-2 (EC50 in μM)
[13] = 10 uM ATP, ATF2 substrate, read-out: JNK 2 Inhibition (IC50 in μM)
[14] = 15 mg/kg oral gavage, read-out: Oral PK T½ (converted)
[15] = read-out: IC50 value based upon a JNK 2 inhibition assay (range given)

Row | SMILES | IC50 [1] | JNK-3 inhibition (in words) [1] | IC50 [2] | PDE-10 inhibition (in words) [2] | PDE-4 inhibition (in words) [3] | IC50 [3] | EC50 [4, 11] | EC50 [4, 12] | EC50 [5] | EC50 [6] | dual inhibition (phosphodiesterase and JNK) [8] | IC50 [9, 13] | half life following oral dosing (in words) ([10]; oral) | half-life [10, 14] | AUC(0-t) ([10]; 15 mg/kg oral gavage) | Cmax ([10]; 15 mg/kg oral gavage) | IC50 [9, 15] | half-life ([10]; oral, read-out: half life following oral dosing) | inhibiting glial cell activation (TNF-α and/or MCP-1) [4] | IP CCI efficacy (Change in grams) [7]
1 | Fc1cccc(-c2nn3ccccc3c2-c2ccnc(NC3CCCC3)n2)c1 [AV1180, N-cyclopentyl-4-(2-(3-fluorophenyl)pyrazolo[1,5-a]pyridin-3-yl)pyrimidin-2-amine] | 0.3 µM | particularly effective | 53.5 µM |  |  | 16.4 µM | 1.6 µM | 0.04 µM | > 30 µM | 4.1 µM | effective dual inhibitors |  | particularly prolonged half lives | 1.8 h | 160 ng·h/mL | 58 ng/mL |  |  | Particularly effective | 0 grams
2 | Brc1cccc(-c2nn3ccccc3c2-c2ccnc(NC3CCCC3)n2)c1 [AV1195, 4-(2-(3-bromophenyl)pyrazolo[1,5-a]pyridin-3-yl)-N-cyclopentylpyrimidin-2-amine] | 0.05 µM | particularly effective | > 100 µM |  | particularly effective | 4.9 µM | 0.7 µM | 0.03 µM |  |  | effective dual inhibitors | 0.09 µM | particularly prolonged half lives | 1.2 h | 581 ng·h/mL | 211 ng/mL | 0.01 to 2 µM |  | Particularly effective | [0] grams
3 | c1ccn2nc(C3CC3)c(-c3ccnc(NC4CCCC4)n3)c2c1 [AV1198, N-cyclopentyl-4-(2-cyclopropylpyrazolo[1,5-a]pyridin-3-yl)pyrimidin-2-amine] | 2.8 µM | particularly effective | 6.8 µM | particularly effective | particularly effective | 3.4 µM | 0.3 µM | 3.3 µM |  |  | effective dual inhibitors | 1.4 µM | particularly prolonged half lives | 3.6 h | 79 ng·h/mL | 30 ng/mL | 0.01 to 2 µM | > 3 h | Particularly effective | [0] grams

Further lines, with some results ahead:

Row | IC50 [1] | JNK-3 inhibition (in words) [1] | IC50 [2] | PDE-10 inhibition (in words) [2] | PDE-4 inhibition (in words) [3] | IC50 [3] | EC50 [4, 11] | EC50 [4, 12] | EC50 [5] | EC50 [6] | dual inhibition (phosphodiesterase and JNK) [8] | IC50 [9, 13] | half life following oral dosing (in words) ([10]; oral) | half-life [10, 14] | AUC(0-t) ([10]; 15 mg/kg oral gavage) | Cmax ([10]; 15 mg/kg oral gavage) | IC50 [9, 15] | half-life ([10]; oral, read-out: half life following oral dosing) | SMILES | inhibiting glial cell activation (TNF-α and/or MCP-1) [4] | IP CCI efficacy (Change in grams) [7]
4 | 1.2 µM | particularly effective | 8.4 µM | particularly effective | particularly effective | 3.4 µM | 1.2 µM | 1 µM | > 30 µM | > 30 µM | effective dual inhibitors |  |  |  |  |  |  |  | CC(C)CNc1nccc(-c2c(C(C)C)nn3ccccc23)n1 [AV1158, N-isobutyl-4-(2-isopropylpyrazolo[1,5-a]pyridin-3-yl)pyrimidin-2-amine] | Particularly effective | 0.93 grams
5 | 3.6 µM |  | > 100 µM |  | particularly effective | 5.4 µM |  |  |  | > 30 µM | effective dual inhibitors | 2.8 µM |  |  |  |  |  |  | CC(C)Cc1nn2ccccc2c1-c1ccnc(NC2CCCC2)n1 [AV1178, N-cyclopentyl-4-(2-isobutylpyrazolo[1,5-a]pyridin-3-yl)pyrimidin-2-amine] |  | 
